# Measured values as given in article PMC9139002, “Naphthoquinone as a New Chemical Scaffold for Leishmanicidal Inhibitors of Leishmania GSK-3” (Biomedicines, 2022).
# Like-named read-outs stand apart in the source and are kept apart here.
# Columns and labels:
# [1] = test system: L. pifanoi axenic amastigotes; assay: Leishmanicidal activity on axenic amastigotes (MTT reduction); type: cell-based, Leishmania pifanoi
# LdGSK-3s [2] = target: T1, LdGSK-3s (Leishmania donovani, UniProt A6N857); assay: Inhibition of recombinant LdGSK-3s with Kinase Glo; type: biochemical; conditions: for IC50: recombinant LdGSK-3s, Kinase Glo
# Method: (§1) Extraction, purification, and evaluation of compounds against recombinant LdGSK-3s was carried out as described. For that, a recombinant LdGSK-3s with a His-tag was obtained as inclusion bodies, that were further solubilized, and purified by chromatography first on a Ni^2+ column an in a second step on a DEAE (diethylaminoethyl) ionic exchange column. Samples were made in duplicate, and assays were repeated at least three times. IC50 (inhibitory concentration that decreases enzymatic activity by 50%) was calculated using the statistical module of SigmaPlot v11.0 software. Evaluation of compounds against hGSK-3β was performed using human recombinant GSK-3β purchased from Millipore as described previously. Compounds were prepared as a 10 mM stock solution in DMSO.
# [3] = test system: L. infantum promastigotes; assay: Leishmanicidal activity on promastigotes (MTT reduction), Table 2 and Table S1; type: cell-based, Leishmania infantum
# Method: (§2) Both activities were assessed by inhibition of MTT (3-(4,5-dimethylthiazol-2-yl)-2,5-diphenyltetrazolium bromide) reduction, as described in [34]. Samples were made in triplicate and assays were repeated at least twice. DMSO content in the medium was adjusted to 0.25% v/v (final concentration), regardless of the final concentration of the drug, and for the control, the untreated parasites. ICx (inhibitory concentration that inhibits parasite growth or enzymatic activity by x%) was calculated using the statistical module of SigmaPlot v11.0 software.
# In a step ahead, the leishmanicidal activity of the compounds on L. pifanoi axenic amastigotes and L. infantum promastigotes was evaluated. Axenic Leishmania amastigotes afford the appraisal of the leishmanicidal activity without the constrains imposed on the access of the compounds to intracellular amastigotes within the parasitophorous vacuole, as well as to preclude the interference of the compounds via host–parasite interface in the final activity. For that, the axenic line of L. pifanoi amastigotes belonging to the mexicana complex was chosen, as in this species the infectivity, antigenicity, and metabolic identity between axenic and intracellular amastigotes have been consistently validated.
# [4] = test system: mouse peritoneal macrophages (MPM); assay: Cytotoxicity on mouse peritoneal macrophages (MTT reduction); type: cell-based; conditions: for Selectivity Index (SI): IC50 MPM/IC50 axenic amastigotes; for IC50: mouse peritoneal macrophages, MTT reduction
# Method: Leishmania parasites were collected at late exponential growth phase by centrifugation at 1610× g at 4 °C. Elicited mouse peritoneal macrophages (MPM) were obtained from 8-week-old Balb/c mice through i.p. injection with 1 mL of 10% thioglycolate medium 72 h before extraction. Macrophages were obtained by peritoneal washing (10 mL PBS, 4 °C).
# as §2
# hGSK-3β = target: T2, hGSK-3β (Homo sapiens, UniProt P49841); assay: Inhibition of human recombinant GSK-3β; type: biochemical; conditions: read-out: percentage of inhibition of hGSK-3β
# T2 construct: purchased Millipore
# Method: as §1
# [5] = test system: intracellular L. pifanoi amastigotes; assay: Parasite load of macrophages infected with mCherry-L. pifanoi amastigotes; type: cell-based, Leishmania pifanoi
# [6] = test system: L. donovani promastigotes; assay: Mitochondrial membrane depolarization (Rhodamine 123 accumulation); type: cell-based, Leishmania donovani; conditions: 4 h; for decrease of Rh123 fluorescence: 2 μM (IC80)
# LdGSK-3s [7] = target: T1, LdGSK-3s; assay: Mechanism of inhibition of LdGSK-3s (kinetics versus ATP, Eadie–Scatchard plot); type: biochemical; conditions: ATP 1 to 10 μM, inhibitor 2.5 and 5 μM, GS2 25 μM
# Method: Briefly, kinetic experiments were carried out at four different concentrations of ATP (10, 5, 2.5, and 1 µM), in the absence or presence of the inhibitors, at either 2.5 or 5 µM, while the phospho-glycogen synthase peptide-2 (GS2) substrate was kept constant at 25 µM. The data were processed using Microsoft Excel software and results presented as Eadie–Scatchard plots (v vs. v/[ATP]).
# [8] = test system: L. donovani promastigotes; assay: Sub G0/G1 population (propidium iodide flow cytometry); type: cell-based, Leishmania donovani; conditions: 72 h
# Method: L. donovani promastigotes (2 × 10^6 cells/mL) in RPMI-HIFCS were incubated with each compound in 24-well plates for 72 h at 26 °C by duplicate. Next, compounds were removed by washing with HBSS-Glc (15,700× g, 4 min, 4 °C) and cells were resuspended in […] of HBSS-Glc, fixed and permeabilized by addition of 200 μL 70% cold EtOH and incubated overnight at 4 °C. Ethanol was removed by centrifugation and cellular pellets washed with HBSS-Glc. Finally, cells were resuspended in 500 μL HBSS-Glc with 20 μg/mL propidium iodide (PI) and 3 mg/mL Ribonuclease A, and incubated in darkness at r. t. for 30 min. PI fluorescence was measured in a Coulter XL EPICS flow cytometer (Beckman Coulter, Nyon, Switzerland) (λEXC = 488 nm, λEM = 620 nm).
# Each assay was repeated at least twice. Untreated cells were used as control for a standard cell cycle histogram, and Miltefosine (hexadecylphosphocholine) (15 μM) was used as control for an apoptosis-inducing respiratory inhibitor [51].
# Parasites were incubated with the corresponding drug for 72 h, followed by EtOH permeabilization, incubated with 3 mg/mL Ribonuclease A and stained with 20 μg/mL of propidium iodide (PI) before cytofluorometric analysis. (λEXC = 488 nm, λEM = 620 nm). The percentage of subG0/G1 population (enclosed within green bars) stands for degraded chromatin, associated with the apoptotic-like process. Miltefosine (hexadecylphosphocholine, HePc) at 15 μM was added as a control for induction of apoptosis.
# [9] = test system: L. donovani promastigotes; assay: Leishmanicidal activity on promastigotes (MTT reduction), Table 1; type: cell-based; conditions: Leishmania donovani
# T2 sequence (P49841 whole entry): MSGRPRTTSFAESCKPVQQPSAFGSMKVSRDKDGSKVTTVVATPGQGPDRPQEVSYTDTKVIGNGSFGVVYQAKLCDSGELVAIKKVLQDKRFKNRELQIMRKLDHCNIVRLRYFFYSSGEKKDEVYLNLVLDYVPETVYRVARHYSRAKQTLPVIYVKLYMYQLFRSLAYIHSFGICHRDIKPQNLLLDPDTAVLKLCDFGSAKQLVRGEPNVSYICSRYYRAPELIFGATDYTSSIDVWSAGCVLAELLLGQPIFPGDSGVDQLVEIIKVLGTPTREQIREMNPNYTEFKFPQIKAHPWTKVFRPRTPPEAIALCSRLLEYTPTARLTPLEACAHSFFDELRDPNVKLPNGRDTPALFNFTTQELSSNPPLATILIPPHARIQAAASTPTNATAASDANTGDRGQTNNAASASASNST
# T1 sequence (A6N857 entry or part of it): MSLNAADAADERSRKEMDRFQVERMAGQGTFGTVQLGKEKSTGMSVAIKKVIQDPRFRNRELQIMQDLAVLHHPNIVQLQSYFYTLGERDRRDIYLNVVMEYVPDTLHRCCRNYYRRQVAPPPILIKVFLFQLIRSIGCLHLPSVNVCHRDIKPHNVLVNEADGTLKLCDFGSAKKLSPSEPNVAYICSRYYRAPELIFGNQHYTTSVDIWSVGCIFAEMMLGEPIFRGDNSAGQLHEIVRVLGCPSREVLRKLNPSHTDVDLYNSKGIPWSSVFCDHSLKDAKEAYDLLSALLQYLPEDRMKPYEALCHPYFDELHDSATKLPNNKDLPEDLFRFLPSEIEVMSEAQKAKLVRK
Compound,IC50 ([1]; Leishmania pifanoi) [µM],IC50 (LdGSK-3s [2]) [µM],IC50 ([3]; Leishmania infantum) [µM],melting point [°C],Selectivity Index (SI) [4],IC50 ([4]; Peritoneal macrophage) [µM],also measured
"O=C1C(Cl)=C(NCc2ccc(Cl)cc2)C(=O)c2ccccc21 [Compound 11, 2-Chloro-3-((4-chlorobenzyl)amino)-1,4-naphthoquinone]",> 25,> 10,> 25,–,–,–,–
"O=C1C(Cl)=C(NC2CCCCC2)C(=O)c2ccccc21 [Compound 9, 2-Chloro-3-(cyclohexylamino)-1,4-naphthoquinone]",> 25,> 10,> 25,122 to 123,–,–,–
"CC(C)(C)NC(=O)NC1=C(Cl)C(=O)c2ccccc2C1=O [Compound 14, 1-(tert-Butyl)-3-(3-chloro-1,4-naphthoquinone-2-yl)urea]",2.1 ± 0.6,> 10,1.4 ± 0.4,195 to 196,0.6,1.3 ± 0.3,–
"COc1cc(CNC2=C(Cl)C(=O)c3ccccc3C2=O)cc(OC)c1OC [Compound 10, 2-Chloro-3-((3,4,5-trimethoxybenzyl)amino)-1,4-naphthoquinone]",> 50,> 10,> 50,161 to 163,–,–,–
"N-(1,4-Naphthoquinone-2-yl)propionamide [Compound 19]",–,> 10,–,–,–,–,IC50 [4]: 4.3 ± 0.3 µM; IC50 [1]: 1.8 ± 0.3 µM; IC50 [3]: 5.9 ± 1.8 µM
"CCCNC1=C(Cl)C(=O)c2ccccc2C1=O [Compound 6, 2-Chloro-3-(propylamino)-1,4-naphthoquinone]",> 25,> 10,19.1 ± 1.2,–,–,–,–
"O=C(NC1=C(Cl)C(=O)c2ccccc2C1=O)OCc1ccccc1 [Compound 3, Benzyl-(3-chloro-1,4-naphthoquinone-2-yl)carbamate]",4.7 ± 0.8,2.8 ± 0.1,4.9 ± 0.2,–,–,9.8 ± 0.2,inhibition at 10 µM (hGSK-3β): 19%
"O=C1Nc2ccc(S(=O)(=O)O)cc2C1=C1Nc2ccccc2C1=NO [Indirubin-3′-monoxime-5-sulphonic acid, reference compound]",–,2.4,–,–,–,–,–
"N-(1,4-Naphthoquinone-2-yl) phenylacetamide [Compound 20]",–,> 10,–,–,–,–,IC50 [4]: 7.5 ± 0.6 µM; IC50 [1]: 3.2 ± 0.1 µM; IC50 [3]: 7.1 ± 2.1 µM
"CC(C)OC(=O)NC1=C(Cl)C(=O)c2ccccc2C1=O [Compound 2, Isopropyl-(3-chloro-1,4-naphthoquinone-2-yl)carbamate]",0.4 ± 0.2,2.5 ± 0.2,1.47 ± 0.02,–,–,4.51 ± 0.3,decrease in parasite load ([5]; 2 μM): 76.3%; decrease of Rh123 fluorescence [6]: 26.4%; inhibition at 10 µM (hGSK-3β): 25%; mechanism of inhibition of LdGSK-3s (LdGSK-3s [7]): ATP competitive inhibitors; percentage of subG0/G1 population ([8]; 2 μM (IC80)): 59.6 ± 1.1%
"O=C1C(Cl)=C(Nc2ccc(Cl)cc2)C(=O)c2ccccc21 [Compound 12, 2-Chloro-3-((4-chlorophenyl)amino)-1,4-naphthoquinone]",> 50,> 10,> 50,–,–,–,–
"CCCCCNC1=C(Cl)C(=O)c2ccccc2C1=O [Compound 7, 2-Chloro-3-(pentylamino)-1,4-naphthoquinone]",> 25,> 10,16.9 ± 0.4,–,–,–,–
"N-(1,4-Naphthoquinone-2-yl)acetamide [Compound 18]",–,> 10,–,–,–,–,IC50 [4]: 4 ± 0.2 µM; IC50 [1]: 1.2 ± 0.1 µM; IC50 [3]: 4.5 ± 0.5 µM
COC(=O)NC1=C(Cl)C(=O)c2ccccc2C1=O [MBC-132],0.51 ± 0.01,2.5 ± 0.1,1.51 ± 0.02,–,5.1,2.6,decrease in parasite load ([5]; 1 μM): 39.1%; decrease in Rh123 accumulation ([6]; 3 μM (IC80)): ~70%; IC50 [9]: 1.51 ± 0.02 µM; inhibition at 10 µM (hGSK-3β): 19%; percentage of subG0/G1 population ([8]; 3 μM (IC80)): 63.2 ± 0.3%
"CCCCCCCCCCCCCCCCOP(=O)([O-])OCC[N+](C)(C)C [HePc, hexadecylphosphocholine, reference compound]",–,–,–,–,–,–,"percentage of subG0/G1 population ([8]; 15 μM, control for induction of apoptosis): 36.8 ± 1.1%"
"COc1cc(COC(=O)NC2=C(Cl)C(=O)c3ccccc3C2=O)cc(OC)c1OC [Compound 5, 3,4,5-Trimethoxybenzyl-(3-chloro-1,4-naphthoquinone-2-yl)carbamate]",3.6 ± 0.6,4.5 ± 0.6,3.8 ± 1.9,–,–,8.1 ± 1,–
O=C1C=C(O)C(=O)c2c(O)c(Cl)c(Cl)c(O)c21 [MBC-10],11.2 ± 2.5,~10,10.5 ± 1.2,–,–,–,IC50 [9]: 10.5 ± 1.2 µM; inhibition at 10 µM (LdGSK-3s [2]; at 10 μM): 45.7%
"COc1ccc(COC(=O)NC2=C(Cl)C(=O)c3ccccc3C2=O)cc1 [Compound 4, 4-Methoxybenzyl-(3-chloro-1,4-naphthoquinone-2-yl)carbamate]",3.7 ± 1.1,4.1 ± 0.1,2.9 ± 0.2,137 to 147,2.0,7.4 ± 0.8,–
"COC(=O)NC1=CC(=O)c2ccccc2C1=O [Compound 16, Methyl-(1,4-naphthoquinone-2-yl)carbamate]",1.7 ± 0.2,> 10,4.1 ± 0.8,201 to 202,2.2,3.8 ± 0.3,–
"CCOC(=O)NC1=CC(=O)c2ccccc2C1=O [Compound 17, Ethyl-(1,4-naphthoquinone-2-yl)carbamate]",1.7 ± 0.1,> 10,4.5 ± 0.7,162 to 163,2.5,4.2 ± 0.2,–
O=C1C(Cl)=C(NCc2ccccc2)C(=O)c2ccccc21,> 25,> 10,> 25,–,–,–,–
"CCOC(=O)NC1=C(Cl)C(=O)c2ccccc2C1=O [Compound 1, Ethyl-(3-chloro-1,4-naphthoquinone-2-yl)carbamate]",0.15 ± 0.4,3.7 ± 0.3,1.54 ± 0.01,147 to 149,20.6,3.1 ± 0.1,decrease of Rh123 fluorescence [6]: 33.0%; inhibition at 10 µM (hGSK-3β): 30%; mechanism of inhibition of LdGSK-3s (LdGSK-3s [7]): ATP competitive inhibitors; percentage of subG0/G1 population ([8]; 2 μM (IC80)): 54.0 ± 4.2%
"CC(C)(C)NC1=C(Cl)C(=O)c2ccccc2C1=O [Compound 8, 2-(tert-Butylamino)-3-chloro-1,4-naphthoquinone]",17.8 ± 1.1,> 10,19.8 ± 3.6,–,1.0,17 ± 0.3,–
